The results in this text go back to US20210084900A1, “Substituted 5-(haloalkyl)-5-hydroxy-isoxazoles for Combating Phytopathogenic Fungi” (BASF SE, priority 2017, published 2021).

One series has as its system Phakopsora pachyrhizi. Put plainly: Protective control of soy bean rust on soy beans, inoculation 1 day after spraying (glass house trial 2). The class given is in vivo. As to conditions: 600 ppm, protective (1 day), untreated plants 100% diseased leaf area. As to the method:
(§1) Spray solutions were prepared in several steps. A mixture was prepared of acetone and/or dimethylsulfoxide and the wetting agent/emulsifier Wettol, which is based on ethoxylated alkylphenoles, in a relation (volume) solvent-emulsifier of 99 to 1 was added to 25 mg of the compound to give a total of 5 ml. Water was then added to a total volume of 100 ml. This stock solution was diluted with the described solvent-emulsifier-water mixture to the given concentration.
2. Protective Control of Soy Bean Rust on Soy Beans Caused by Phakopsora pachyrhizi
Leaves of pot-grown soy bean seedlings were sprayed to run-off with an aqueous suspension, containing the concentration of active ingredient or their mixture as described below. The plants were allowed to air-dry. The trial plants were cultivated for 1 day in a greenhouse chamber at 23 to 27° C. and a relative humidity between 60 and 80%.Then the plants were inoculated with spores of Phakopsora pachyrhizi. To ensure the success the artificial inoculation, the plants were transferred to a humid chamber with a relative humidity of about 95% and 20 to 24° C. for 24 hours. The trial plants were cultivated for fourteen days in a greenhouse chamber at 23 to 27° C. and a relative humidity between 60 and 80%. The extent of fungal attack on the leaves was visually assessed as % diseased leaf area.

The test system of another series is Sclerotinia sclerotiorum. Description: Preventative fungicidal control of rape stem rot on soy beans (glass house trial 5). The class given is in vivo. As to conditions: 300 ppm, soy bean, untreated plants 90% diseased leaf area. As to the method:
as §1
5. Preventative Fungicidal Control of Rape Stem Rot on Soy Beans Caused by (Sclerotinia scierotiorum
Young seedlings of soy beans were grown in pots. These plants were sprayed to run-off with an aqueous suspension, containing the concentration of active ingredient or mixture mentioned in the table below. The next day the treated plants were inoculated: Rye and millet grains were infected with Sclerotinia sclerotiorum. After the infection the grains were air dried for a week. The grains were powdered with a mixer. A small amount of powder was brought onto the soy bean (leaves). Then the trial plants were cultivated for 7 days in a greenhouse chamber at 23° C. and a relative humidity between 80 an 85%. The extent of fungal attack on the leaves was visually assessed with a classification method: 0, 33, 50, 67 and 100% disease of leaf area and stem.

In another series the test system is Puccinia recondita. Description: Preventative control of brown rust on wheat (glass house trial 6). Particulars: 300 ppm, preventative (inoculation 7 days after spraying), untreated plants 100% diseased leaf area. Type of series: in vivo. As to the method: as §1
6. Preventative Control of Brown Rust on Wheat Caused by Puccinia recondita
The first two developed leaves of pot-grown wheat seedling were sprayed to run-off with an aqueous suspension, containing the concentration of active ingredient or their mixture as described below. Seven days later the plants were inoculated with spores of Puccinia recondita. To ensure the success the artificial inoculation, the plants were transferred to a humid chamber without light and a relative humidity of 95 to 99% and 20 to 24° C. for 24 hours. Then the trial plants were cultivated for 6 days in a greenhouse chamber at 20 to 24° C. and a relative humidity between 65 and 70%. The extent of fungal attack on the leaves was visually assessed as % diseased leaf area.

For the compound `CN(C(=O)c1ccc(C2=NOC(O)(C(F)(F)F)C2)cc1)c1ccccc1` (centres unmarked) [Ex-2], the diseased leaf area in the series on Phakopsora pachyrhizi and in the series on Sclerotinia sclerotiorum was 0% each time.

As usually defined, the melting point is the temperature of the solid-liquid transition. `O=C(NCc1ccc(C2=NOC(O)(C(F)(F)F)C2)cc1)C1CC1` (centres unmarked) [Ex-4, N-[[4-[5-hydroxy-5-(trifluoromethyl)-4H-isoxazol-3-yl]phenyl]methyl]cyclopropanecarboxamide] registered a melting point of 207 °C.

As for `O=C(Nc1ccccc1)c1ccc(C2=NOC(O)(C(F)(F)F)C2)cc1` (centres unmarked) [Ex-7, 4-[5-Hydroxy-5-(trifluoromethyl)-4H-isoxazol-3-yl]-N-phenyl-benzamide], the melting point was 217 °C.

For the compound `COC1(C(F)(F)F)CC(c2ccc(CN(C)C(=O)C3CC3)cc2)=NO1` (centres unmarked) [Ex-13], the diseased leaf area in the series with Phakopsora pachyrhizi is reported as 0%.

With `CN(Cc1ccc(C2=NOC(O[Si](C)(C)C)(C(F)(F)F)C2)cc1)C(=O)C1CC1` (centres unmarked) [Ex-14], the diseased leaf area with Phakopsora pachyrhizi is 0%.

With `CC(=O)OC1(C(F)(F)F)CC(c2ccc(CN(C)C(=O)C3CC3)cc2)=NO1` (centres unmarked) [Ex-15], the diseased leaf area with Phakopsora pachyrhizi stood at 0%; with Sclerotinia sclerotiorum it was 0%; in the series on Puccinia recondita, 12%.

Turning to `CC(=O)OC1(C(F)(F)F)CC(c2ccc(CNC(=O)C3CC3)cc2)=NO1` (centres unmarked) [Ex-18], the diseased leaf area in the series with Phakopsora pachyrhizi and in the series on Sclerotinia sclerotiorum was 0% each time.

`COC1(C(F)(F)F)CC(c2ccc(CNC(=O)C3CC3)cc2)=NO1` (centres unmarked) [Ex-19] registered a diseased leaf area in the series on Phakopsora pachyrhizi of 0%.

With `O=C(Nc1ccccc1)c1ccc(C2=NOC(OC(=O)N3CCCC3)(C(F)(F)F)C2)cc1` (centres unmarked) [Ex-26], the diseased leaf area in the series on Sclerotinia sclerotiorum amounted to 0%.

As for `O=C(Nc1ccccc1)c1ccc(C2=NOC(OC(=O)N3CCOCC3)(C(F)(F)F)C2)cc1` (centres unmarked) [Ex-27], the diseased leaf area in the series with Sclerotinia sclerotiorum stood at 0%.

Take `O=C(Nc1ccccc1)c1ccc(C2=NOC(OC(=O)C3CCCO3)(C(F)(F)F)C2)cc1` (centres unmarked) [Ex-28]: the diseased leaf area with Phakopsora pachyrhizi and in the series on Sclerotinia sclerotiorum was 0% throughout.

Consider `CCOCC(=O)OC1(C(F)(F)F)CC(c2ccc(C(=O)Nc3ccccc3)cc2)=NO1` (centres unmarked) [Ex-30], for which the diseased leaf area in the series on Phakopsora pachyrhizi and with Sclerotinia sclerotiorum was 0% throughout.

In the series on Phakopsora pachyrhizi, `CC(C)CC(=O)OCOC1(C(F)(F)F)CC(c2ccc(C(=O)Nc3ccccc3)cc2)=NO1` (centres unmarked) [Ex-40] displayed a diseased leaf area of 0%.

In the series with Phakopsora pachyrhizi, `CNC(=O)c1ccc(C2=NOC(OC(=O)C3CC3)(C(F)(F)F)C2)cc1` (centres unmarked) [Ex-42] showed a diseased leaf area of 0%.
